According to US20210388028A1, “GLYCOPEPTIDE DERIVATIVE COMPOUNDS AND USES THEREOF” (INSMED INCORPORATED, priority 2018, published 2021):

Legend:
[1] = parameters: species or system Sprague Dawley rats; settings: rat, in vivo, inhaled or intranasal, 10 mg/kg
Experimental: 120 h single dose in vivo PK experiments of nebulized inhaled compounds were performed in healthy male Sprague Dawley rats at target body-weight doses of 10 mg/kg (RV40) or 1.5 mg/kg (TLV, RV104, RV106), using a 12-port nose-only chamber (CH Technologies, Westwood, N.J., USA) equipped with an Aerogen Aeroneb Pro mesh nebulizer. The aerosol was provided to chamber at a flow rate of 6 L/min. Lungs were collected, and drug concentrations measured by HPLC-MS/MS.
Chemical modification of the compound to include an additional moiety at R=x was accomplished to improve reduce the compound's predictive hydrophobicity.

[2] = tested on: gram positive pathogens including S. Aureus methicillin-susceptible and resistant isolates; assay: antibacterial activity against gram positive pathogens; format: cell-based

## CCCCCCCCCCNCCN[C@@]1(C)C[C@H](O[C@H]2[C@H](Oc3c4cc5cc3Oc3ccc(cc3Cl)[C@@H](O)[C@@H](NC(=O)[C@@H](CC(C)C)NC)C(=O)N[C@@H](CC(N)=O)C(=O)N[C@H]5C(=O)N[C@H]3C(=O)N[C@H](C(=O)N[C@H](C(=O)O)c5cc(O)cc(O)c5-c5cc3ccc5O)[C@H](O)c3ccc(c(Cl)c3)O4)O[C@H](CO)[C@@H](O)[C@@H]2O)O[C@@H](C)[C@H]1O [RV40]
[1]
  half-life in lung tissue (t1/2): 12.5 days
[2]
  antibacterial activity: potent antibacterial activity
